Laboratory results as given in patent publication US20230003721A1, “MITOTHERAPEUTICS FOR THE TREATMENT OF BRAIN DISORDERS” (The University of Florida Research Foundation, Inc., priority 2019, published 2023).
Structures can show the parent of a compound that is named as a salt.

How the values were obtained:
[1] = system: primary neurons; experiment: CellTiter-Glo luminescence-based ATP assay; type: cell-based, mouse; settings: for ATP: ATP orthogonal screen, 24 h; for EC50 / Emax: Mus musculus, Primary neuron, dose response; for EC50: 15 concentrations from 6 nM to 100 uM; for Emax: maximal percent increase relative to in-plate DMSO controls, read-out: ATP (Effect-size)
Experimental: Measurement of ATP production. The total amount of ATP produced by cultured primary neurons was measured by CellTiter-Glo Luminescent Cell Viability Assay (Promega). A recombinant luciferase enzyme catalyzed the mono-oxygenation of luciferin while hydrolyzing ATP produced by the cells and emitting light. We followed the manufacturer's protocol with primary neurons on DIV14.
(§1) A CLARIOstar (BMG LABTECH) microplate reader was used to measure fluorescence of TMRM and luminescence produced from the ATP.
(§2) Mitochondrial membrane potential (Δψm) and luminescence-based ATP assays. […] Changes of ΔΨm in each well were monitored using the mitochondrial-specific, fluorescent dye TMRM (tetramethyl rhodamine, methyl ester; Molecular Probes) and measured using a CLARIOstar plate reader. […] This concentration was used throughout our experiments. […] Wells in columns 1 and 24 were not loaded with TMRM; these served to measure background signal which was subtracted from the wells to which TMRM was added. To measure the total ATP levels in neurons we utilized the CellTiter-Glo® luminescence-based ATP assay (Promega). DIV13 primary neurons were cultured for 24 h with either DMSO carrier or compound treatment, followed by removing 55 μl culture medium from each well. Plates were maintained at room temperature for 25 m, and 25 μl of CellTiter-Glo® Reagent with the substrate luciferin was then added to each well (Promega). Plates were covered with aluminum foil and shaken vigorously on an orbital shaker for 10 m at 200 rpm and maintained at room temperature for an additional 2 m in dark before being read with the plate reader set to the luminescence mode.
Compound library and hit picking rules. We screened 2400 compounds from the MicroSource Spectrum library. […] FIGS. 13A-13E provide details of the assays used from which hit picking rules were made. In essence, the average fluorescence for each compound in the TMRM assay was determined and compared to the average fluorescence for compounds in the population on each assay plate to produce a Z-score. The Z-scores for each individual compound assayed across the four replicate plates was then averaged. Because of significant well location effects (outer rows) on each assay plate (FIG. 13G), we selected primary hits as enhancing well fluorescence above the μplate by 3σplate for inner row wells (rows C-N, columns 3-22), and by 2.5σplate for outer row wells (rows A, B, O, P; columns 3-22) (FIG. 14C-D). […] All orthogonal assays employed inner wells of the 384-well plates.

[2] = system: primary neurons; experiment: TMRM fluorescence assay of inner mitochondrial membrane potential (ΔΨm); settings: for TMRM Primary: primary screen; for TMRM Primary / TMRM Rescreen: 24 h; for Emax / EC50: Mus musculus, Primary neuron; for Emax: read-out: TMRM (Effect-size); for EC50: read-out: TMRM-EC50
Experimental: Mitochondrial dyes. To assay the electrochemical potential across the inner mitochondrial membrane of cultured cells, we used the cell-permeant dye tetramethylrhodamine methyl ester (TMRM). For co-localization studies with Mt-GFP, TMRM was used at 20 nM on DIV14 and incubated for 30 min prior to imaging. For the orthogonal screen of compounds, TMRM was added to primary neurons on DIV13 at 10 nM, one hr prior to pintooling selected compounds, and incubated for 24 hr. Cells were washed 2× with pre-warmed fresh feeding media without B27 before measurements with a plate reader.
as §1, §2
Compound library and hit picking rules. We screened 2400 compounds from the MicroSource Spectrum library. […] FIGS. 13A-13E provide details of the assays used from which hit picking rules were made. In essence, the average fluorescence for each compound in the TMRM assay was determined and compared to the average fluorescence for compounds in the population on each assay plate to produce a Z-score. The Z-scores for each individual compound assayed across the four replicate plates was then averaged.

Compound	ATP [1] [Z-scores]	TMRM Primary ([2]; 12.5 μM) [Z-scores]	TMRM Rescreen [2] [Z-scores]	EC50 [1] [µM]	Emax [1] [%]	Emax [2] [%]	EC50 [2] [µM]	hit in TMRM primary screen when assayed at 4 h ([2]; 12.5 μM, 4 h)
CN(C/C=C/c1ccccc1)Cc1cccc2ccccc12 [naftifine hydrochloride]	4.65	3.26	4.64	–	–	–	–	–
OC(CNCC(O)C1CCc2cc(F)ccc2O1)C1CCc2cc(F)ccc2O1 (centres unmarked) [nebivolol hydrochloride]	6.92	3.73	5.29	–	–	–	–	–
CCc1nn(CCCN2CCN(c3cccc(Cl)c3)CC2)c(=O)n1CCOc1ccccc1 [nefazodone hydrochloride]	6.30	4.00	6.11	–	–	–	–	–
COC(=O)C1=C(C)NC(C)=C(C(=O)OCCN(C)Cc2ccccc2)C1c1cccc([N+](=O)[O-])c1 (centres unmarked) [nicardipine hydrochloride]	−3.75	4.22	−5.52	–	–	–	–	–
COCCOC(=O)C1=C(C)NC(C)=C(C(=O)OC(C)C)C1c1cccc([N+](=O)[O-])c1 (centres unmarked) [nimodipine]	6.53	4.40	3.98	–	–	–	–	–
CNCCC=C1c2ccccc2CCc2ccccc21 [nortriptyline hydrochloride]	5.66	3.77	5.25	0.2	16.5	21	0.55	–
CCCCCCCCCCC[C@@H](C[C@@H]1OC(=O)[C@H]1CCCCCC)OC(=O)[C@H](CC(C)C)NC=O [orlistat]	2.36	3.43	1.56	–	–	–	–	–
Clc1ccc(CO/N=C(\Cn2ccnc2)c2ccc(Cl)cc2Cl)c(Cl)c1 [oxiconazole nitrate]	5.76	3.08	3.28	–	–	–	–	–
Fc1ccc([C@@H]2CCNC[C@H]2COc2ccc3c(c2)OCO3)cc1 [paroxetine hydrochloride]	4.41	3.53	3.26	–	–	–	–	–
CC(C)(C)NC[C@H](O)COc1ccccc1C1CCCC1 [penbutolol sulfate]	3.39	3.16	5.35	–	–	–	–	–
C/C(=C\CO)CCC[C@H](C)CCC[C@H](C)CCCC(C)C [phytol]	4.63	3.42	2.70	–	–	–	–	–
CC[N+]1(C)CCCC(OC(=O)C(O)(c2ccccc2)c2ccccc2)C1 (centres unmarked) [pipenzolate bromide]	3.45	3.14	7.09	–	–	–	–	–
CC(=O)c1ccc2c(c1)N(CCCN1CCC(CCO)CC1)c1ccccc1S2 [piperacetazine]	5.80	5.30	5.01	–	–	–	–	–
CCN1CCCC(OC(=O)C(c2ccccc2)c2ccccc2)C1 (centres unmarked) [piperidolate hydrochloride]	5.72	3.58	3.76	–	–	–	–	–
CCCCOc1ccc(OCCCN2CCOCC2)cc1 [pramoxine hydrochloride]	−1.97	2.93	−4.72	–	–	–	–	–
OC(CCN1CCCC1)(c1ccccc1)C1CCCCC1 (centres unmarked) [procyclidine hydrochloride]	7.14	4.55	6.91	0.24	18.7	23.3	0.85	–
CN(C)CCCN1c2ccccc2Sc2ccccc21 [promazine hydrochloride]	4.76	3.81	4.04	–	–	–	–	–

Compound	ATP [1] [Z-scores]	TMRM Primary ([2]; 12.5 μM) [Z-scores]	TMRM Rescreen [2] [Z-scores]	EC50 [1] [µM]	Emax [1] [%]	Emax [2] [%]	EC50 [2] [µM]	hit in TMRM primary screen when assayed at 4 h ([2]; 12.5 μM, 4 h)
CCCNCC(O)COc1ccccc1C(=O)CCc1ccccc1 (centres unmarked) [propafenone hydrochloride]	5.18	3.75	5.04	–	–	–	–	–
CCCOc1ccc(C(=O)OCCN(CC)CC)cc1N [proparacaine hydrochloride]	4.11	3.43	4.65	–	–	–	–	–
CCc1nc(N)nc(N)c1-c1ccc(Cl)cc1 [pyrimethamine]	6.54	3.43	4.00	–	–	–	–	pyrimethamine*
C=C[C@H]1CN2CC[C@H]1C[C@H]2[C@H](OC(=O)OCC)c1ccnc2ccc(OC)cc12 [quinine ethyl carbonate]	3.60	4.64	6.26	–	–	–	–	–
COC(=O)[C@H]1[C@H]2C[C@H]3c4[nH]c5ccccc5c4CCN3C[C@H]2CC[C@@H]1O [rauwolscine hydrochloride]	8.40	4.30	8.77	1	20.9	29.4	4.58	–
COC(=O)[C@H]1[C@H]2C[C@@H]3c4[nH]c5cc(OC)ccc5c4CCN3C[C@H]2C[C@@H](OC(=O)c2cc(OC)c(OC)c(OC)c2)[C@@H]1OC [reserpine]	5.29	7.44	7.89	0.12	20.5	22.5	0.64	–
Cc1nc2sccn2c(=O)c1CCN1CCC(=C(c2ccc(F)cc2)c2ccc(F)cc2)CC1 [ritanserin]	4.40	5.25	5.83	–	–	–	–	–
C=C[C@](C)(O)CC[C@@H]1[C@@]2(C)CCCC(C)(C)[C@@H]2CC[C@@]1(C)O [sclareol]	4.64	2.80	5.41	–	–	–	–	–
CN[C@H]1CC[C@@H](c2ccc(Cl)c(Cl)c2)c2ccccc21 [sertraline hydrochloride]	4.82	3.42	4.15	–	–	–	–	–
C1CCN2C[C@@H]3C[C@@H](CN4CCCC[C@@H]34)[C@H]2C1 [sparteine sulfate]	2.92	2.65	1.95	–	–	–	–	–
COc1ccc(-n2nc(CCC(=O)N(C)O)cc2-c2ccc(Cl)cc2)cc1 [tepoxalin]	6.89	4.36	3.75	–	–	–	–	–
CC(C)N1CCN(c2ccc(OCC3COC(Cn4cncn4)(c4ccc(Cl)cc4Cl)O3)cc2)CC1 (centres unmarked) [terconazole]	2.82	5.15	5.95	–	–	–	–	–
CN1CCN(CC/C=C2/c3ccccc3Sc3ccc(S(=O)(=O)N(C)C)cc32)CC1 [thiothixene]	3.80	3.08	3.38	–	–	–	–	–
COc1ccc(CN(CCN(C)C)c2ncccn2)cc1 [thonzylamine hydrochloride]	5.17	3.16	3.21	–	–	–	–	–
CN(C)c1cc(NC(=O)CNC(C)(C)C)c(O)c2c1C[C@H]1C[C@H]3[C@H](N(C)C)C(O)=C(C(N)=O)C(=O)[C@@]3(O)C(O)=C1C2=O [tigecycline]	4.97	3.91	5.95	–	–	–	–	–
CCNC1(c2cccs2)CCCCC1=O.Cl (centres unmarked) [tiletamine hydrochloride]	6.27	3.31	4.20	–	–	–	–	–
Cc1ccc(C(=O)C(C)CN2CCCCC2)cc1 (centres unmarked) [tolperisone hydrochloride]	5.49	3.57	3.67	–	–	–	–	–
